According to patent US20190380941A1, “COMPOSITION COMPRISING A TRUFFLE EXTRACT AND NEOHESPERIDIN DIHYDROCHALCONE” (L'OREAL, priority 2016, published 2019):

Test system: filaggrin
Experiment: Filaggrin expression in normal human keratinocytes (NHEK), in-situ immunolabelling
Format: cell-based
Details: 72 hours incubation; for Mean filaggrin (AU): fluorescence intensity relative to number of cells, control 12261; for Mean filaggrin (AU) / % relative to the control (filaggrin): truffle extracts 4.5·10^−3% by weight of active material, Neohesperidin DHC 0.3 mg/ml, CaCl2 1.5 mM; for increase of filaggrin protein expression relative to the control: same concentrations as in the table, change versus control; for % relative to the control (filaggrin): control = 100
Excerpt: The in vitro effect of the combination of neohesperidin dihydrochalcone (neohesperidin DHC) and an extract of black (Périgord) truffle (Tuber melanosporum) and/or an extract of white (summer) truffle (Tuber aestivum) on keratinocyte differentiation is studied. The expression and the location of the marker of filaggrin differentiation are especially studied in keratinocytes in culture which thus makes it possible to evaluate the ability of these combinations to increase the differentiation of these cells. The culture medium is: Keratinocyte-SFM supplemented with: • 0.25 ng/ml Epidermal Growth Factor (EGF); • 25 μg/ml pituitary extract (PE); • 25 μg/ml Gentamicin; The test medium is Keratinocyte-SFM supplemented with 25 μg/ml Gentamicin. The keratinocytes were seeded into 96-well plates and cultured in culture medium for 168 hours with renewal of the culture medium after 24 and 96 hours of incubation. […] All the experimental conditions were carried out in n=3, except the control condition which was carried out in n=6. After incubation, the medium was eliminated and the cells were rinsed, fixed and permeabilized. The cells were then labelled with the primary antibody (see Table A) directed against the protein of interest (filaggrin). […] At the same time, the nuclei of the cells were stained with Hoechst 33258 (bisbenzimide). [table] The image acquisition was carried out with an INCellAnalyzer™ 1000 (GE Healthcare) high-resolution imaging system. For each well, 10 digitized images were captured for each immunolabelling (×20 objective).

Structure (SMILES): [Ca+2].[Cl-].[Cl-] [CaCl2, calcium chloride]
- Mean filaggrin (AU): 74795 AU
- increase of filaggrin protein expression relative to the control: +510%
- % relative to the control (filaggrin): 610%

Structure (SMILES): COc1ccc(CCC(=O)c2c(O)cc(O[C@@H]3O[C@H](CO)[C@@H](O)[C@H](O)[C@H]3O[C@@H]3O[C@@H](C)[C@H](O)[C@@H](O)[C@H]3O)cc2O)cc1O [Neohesperidin DHC, 1-(4-((2-O-[6-Deoxy-α-L-mannopyranosyl]-β-D-glucopyranosyl)oxy)-2,6-dihydroxyphenyl)-3-[3-hydroxy-4-methoxyphenyl]-1-propanone]
- Mean filaggrin (AU): 18840 AU
- increase of filaggrin protein expression relative to the control: +54%
- % relative to the control (filaggrin): 154%
